Results from US20120040951A1, “HETEROARYL COMPOUNDS USEFUL AS RAF KINASE INHIBITORS” (priority 2008, published 2012).
pEC50, pIC50: −log10 of the molar value.

How the values were obtained:
[1] = tested on: phospho-ERK in melanoma derived WM-266-4 cells; assay: Mechanistic cellular assay for Raf kinase activity (phospho-ERK, Bio-Plex); format: cell-based; conditions: Homo sapiens, treated 1-2 hr at 37° C., serum free medium, read-out: pERK EC50
Procedure, shortened: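 WM-266-4 melanoma cells (wild-type/V600D BRaf) grown overnight in 10% FBS RPMI, then treated 1–2 h at 37 °C in serum-free RPMI with eight 3-fold dilutions of compound (from 5 mM DMSO stock, 1000× dilution). Lysate phospho-ERK1,2 quantified by Bio-Plex bead immunoassay.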

V599E Raf = V599E Raf (Homo sapiens, UniProt P15056, V600E); assay: Biochemical FRET assay, mutant Raf (phosphorylation of MEK); conditions: 0.125 nM V599E Raf, 100 nM biotin-MEK, 25 μM ATP, read-out: Raf (mut) inhibition
Chain of V599E Raf (P15056 whole entry V600E): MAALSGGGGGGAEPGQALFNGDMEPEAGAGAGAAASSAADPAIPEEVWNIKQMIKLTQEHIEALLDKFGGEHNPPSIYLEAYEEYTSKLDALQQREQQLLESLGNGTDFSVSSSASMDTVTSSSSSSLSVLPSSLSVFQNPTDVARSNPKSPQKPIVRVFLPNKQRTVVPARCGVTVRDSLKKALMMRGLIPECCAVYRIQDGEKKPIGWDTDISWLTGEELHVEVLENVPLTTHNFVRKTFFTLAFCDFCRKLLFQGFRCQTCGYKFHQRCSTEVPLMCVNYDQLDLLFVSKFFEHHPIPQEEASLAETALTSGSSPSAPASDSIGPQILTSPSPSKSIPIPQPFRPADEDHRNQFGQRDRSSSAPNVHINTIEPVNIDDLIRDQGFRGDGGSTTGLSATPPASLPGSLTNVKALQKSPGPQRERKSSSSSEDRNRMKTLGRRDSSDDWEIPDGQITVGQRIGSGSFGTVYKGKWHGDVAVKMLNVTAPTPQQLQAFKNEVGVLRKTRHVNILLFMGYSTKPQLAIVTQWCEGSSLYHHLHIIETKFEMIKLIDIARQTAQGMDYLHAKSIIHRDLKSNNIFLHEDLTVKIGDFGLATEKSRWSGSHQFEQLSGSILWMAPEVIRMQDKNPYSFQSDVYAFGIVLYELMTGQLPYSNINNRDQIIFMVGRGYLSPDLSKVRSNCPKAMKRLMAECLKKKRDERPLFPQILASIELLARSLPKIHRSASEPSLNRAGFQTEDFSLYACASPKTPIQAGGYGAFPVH
Description: (1) Biochemical FRET Assay […]
Inhibitors were diluted 4-fold in 100% DMSO and added to a final concentration of 10 μM to 40 μM to a solution containing 100 nM biotin-MEK, 0.125 nM V599E Raf in 50 mM HEPES, pH 7.4, 60 mM NaCl, 3 mM MgCl2, 2 mM DTT, 0.25 mM MnCl2, 0.01% BSA, and 0.01% Tween-20 and incubated for 20 minutes at room temperature. The kinase reaction was started by the addition of 25 μM ATP to a final volume of 45 μl and allowed to progress for 60 minutes. The reaction was stopped with 15 mM EDTA and 20 nM Streptavidin-APC, 2.5 nM Polyclonal anti p-MEK1/2 (Ser217/221), 2.5 nM Eu-labeled anti-rabbit IgG were added in Lance detection buffer and 5% Superblock in PBS for a final volume of 100 μl. The detection reaction was incubated for 90 minutes at room temperature and then read on an Analyst plate reader using standard TR-FRET (time resolved fluorescence resonance energy transfer) settings for Eu and APC.
Compounds having an activity designated as “A” provided an IC50≦100 nM; compounds having an activity designated as “B” provided an IC50 of 100-1000 nM; and compounds having an activity designated as “C” provided an IC50 of 1000-10,000 nM.

SMILES: C[C@@H](NC(=O)c1cc2c(cn1)ncn2C1CCC1)c1cnc(Nc2ccc(C(F)(F)F)cc2)s1 [Example 176]
- pEC50 [1]: ≥ 7.00
- pIC50 (V599E Raf): ≥ 7.00

SMILES: C[C@@H](NC(=O)c1cnn2ccccc12)c1ncc(C(=O)Nc2cc(C(F)(F)F)c(Cl)cn2)s1 [Example 86]
- pEC50 [1]: 6.00 to 7.00
- pIC50 (V599E Raf): ≥ 7.00

SMILES: CC(NC(=O)c1cnn2ccccc12)c1ncc(C(=O)Nc2ccc(Cl)c(C(F)(F)F)c2)s1 (stereo not shown) [Example 222]
- pEC50 [1]: ≥ 7.00
- pIC50 (V599E Raf): 6.00 to 7.00

SMILES: C[C@@H](NC(=O)c1cc2c(cn1)ncn2C1CN(C)C1)c1cnc(Nc2ccc(C(F)(F)F)cc2)s1 [Example 182]
- pEC50 [1]: 6.00 to 7.00
- pIC50 (V599E Raf): ≥ 7.00

SMILES: COCCn1c(C(=O)NC(C)c2cnc(Nc3ccc(C(F)(F)F)cc3)s2)cnc1C (stereo not shown) [Example 140]
- pEC50 [1]: 5.00 to 6.00
- pIC50 (V599E Raf): ≥ 7.00

SMILES: C[C@@H](NC(=O)c1cscn1)c1ncc(C(=O)Nc2cc(C(F)(F)F)c(Cl)cn2)s1 [Example 95]
- pEC50 [1]: 5.00 to 6.00
- pIC50 (V599E Raf): ≥ 7.00

SMILES: Cc1ccc(NC(=O)c2cc([C@H](C)NC(=O)c3cnn4ccccc34)on2)cc1C(F)(F)F [Example 227]
- pEC50 [1]: 6.00 to 7.00
- pIC50 (V599E Raf): ≥ 7.00

SMILES: CC(NC(=O)c1cn2c(Cl)cnc2cn1)c1cnc(Nc2ccc(C(F)(F)F)cc2)s1 (stereo not shown) [Example 299]
- pEC50 [1]: 6.00 to 7.00
- pIC50 (V599E Raf): ≥ 7.00

SMILES: CC(NC(=O)c1cc2c(cn1)ncn2C)c1ccc(Nc2ccc(C(F)(F)F)cc2)nc1 (stereo not shown) [Example 339]
- pEC50 [1]: 6.00 to 7.00
- pIC50 (V599E Raf): ≥ 7.00

SMILES: CC(NC(=O)c1cc2c(cn1)ncn2C1CNC1)c1cnc(Nc2ccc(C(F)(F)F)cc2)cn1 (stereo not shown) [Example 179]
- pEC50 [1]: 6.00 to 7.00
- pIC50 (V599E Raf): ≥ 7.00

SMILES: CC(=O)Nc1cccc(C(=O)N[C@H](C)c2ncc(C(=O)Nc3cc(C(F)(F)F)c(Cl)cn3)s2)n1 [Example 93]
- pEC50 [1]: 5.00 to 6.00
- pIC50 (V599E Raf): 6.00 to 7.00

SMILES: C[C@@H](NC(=O)c1cnn(C)c1CNC1CC1)c1ncc(C(=O)Nc2cc(C(F)(F)F)c(Cl)cn2)s1 [Example 133]
- pEC50 [1]: 6.00 to 7.00
- pIC50 (V599E Raf): 6.00 to 7.00

SMILES: C[C@@H](NC(=O)c1ccc2[nH]c(CO)nc2c1)c1ncc(C(=O)Nc2cc(C(F)(F)F)c(Cl)cn2)s1 [Example 55]
- pEC50 [1]: 5.00 to 6.00
- pIC50 (V599E Raf): ≥ 7.00

SMILES: CC(NC(=O)c1cnc2ncccn12)c1cnc(Nc2ccc(C(F)(F)F)cc2)s1 (stereo not shown) [Example 310]
- pEC50 [1]: 5.00 to 6.00
- pIC50 (V599E Raf): ≥ 7.00

SMILES: C[C@@H](NC(=O)c1cc2c(cn1)ncn2[C@H]1CCN(C(=O)OC(C)(C)C)C1)c1cnc(Nc2ccc(C(F)(F)F)cc2)s1 [Example 29]
- pEC50 [1]: ≥ 7.00
- pIC50 (V599E Raf): ≥ 7.00

SMILES: CC(NC(=O)c1cnc2n1CCCN2)c1cnc(Nc2ccc(C(F)(F)F)cc2)s1 (stereo not shown) [Example 177]
- pEC50 [1]: 6.00 to 7.00
- pIC50 (V599E Raf): ≥ 7.00

SMILES: CC(NC(=O)c1cc2c(cn1)ncn2C1CCC1)c1cnc(Nc2cnc(C(C)(C)C)nc2)s1 (stereo not shown) [Example 286]
- pEC50 [1]: ≥ 7.00
- pIC50 (V599E Raf): ≥ 7.00

SMILES: CC(NC(=O)c1ccc2nc(N)sc2c1)c1cnc(Nc2ccc(C(F)(F)F)cc2)s1 (stereo not shown) [Example 75]
- pEC50 [1]: 6.00 to 7.00
- pIC50 (V599E Raf): ≥ 7.00

SMILES: C[C@@H](NC(=O)c1cc2c(cn1)ncn2C)c1cnc(Nc2cnc(C(C)(C)C)nc2)s1 [Example 241]
- pEC50 [1]: ≥ 7.00
- pIC50 (V599E Raf): ≥ 7.00

SMILES: Cc1scnc1C(=O)N[C@H](C)c1ncc(C(=O)Nc2cc(C(F)(F)F)c(Cl)cn2)s1 [Example 96]
- pEC50 [1]: 5.00 to 6.00
- pIC50 (V599E Raf): ≥ 7.00

SMILES: CC(NC(=O)c1cc2c(cn1)ncn2C1CCC1)c1cnc(Nc2ccc(Cl)c(C(F)(F)F)c2)cn1 (stereo not shown) [Example 234]
- pEC50 [1]: 6.00 to 7.00
- pIC50 (V599E Raf): ≥ 7.00

SMILES: C[C@@H](NC(=O)c1cccc(N)n1)c1ncc(C(=O)Nc2cc(C(F)(F)F)c(Cl)cn2)s1 [Example 92]
- pEC50 [1]: 5.00 to 6.00
- pIC50 (V599E Raf): ≥ 7.00

SMILES: COc1nc(C(C)(C)C)ncc1Nc1ncc(C(C)NC(=O)c2cc3c(cn2)ncn3C)s1 (stereo not shown) [Example 270]
- pEC50 [1]: ≥ 7.00
- pIC50 (V599E Raf): ≥ 7.00

SMILES: CC(NC(=O)c1cc2c(cn1)ncn2C1CN(C(C)C)C1)c1cnc(Nc2ccc(C(F)(F)F)cc2)cn1 (stereo not shown) [Example 181]
- pEC50 [1]: 6.00 to 7.00
- pIC50 (V599E Raf): ≥ 7.00

SMILES: Cc1nc(Nc2ccc(C(F)(F)F)cc2)sc1C(C)NC(=O)c1cc2c(cn1)ncn2C (stereo not shown) [Example 340]
- pEC50 [1]: 5.00 to 6.00
- pIC50 (V599E Raf): ≥ 7.00

SMILES: CNc1nc(C(C)(C)C)ncc1Nc1ncc(C(C)NC(=O)c2cc3c(cn2)ncn3C)s1 (stereo not shown) [Example 280]
- pEC50 [1]: 6.00 to 7.00
- pIC50 (V599E Raf): ≥ 7.00
